Active and inactive are the calls of the source.
What was measured:
[1] = molecular target: T1, Coagulation factor XII (Homo sapiens, UniProt P00748); type: functional;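 also: activated factor XIIa alpha cleaving a fluorogenic AMC peptide substrate; inhibitor potency from loss of enzyme activity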
T1 sequence (P00748 whole entry): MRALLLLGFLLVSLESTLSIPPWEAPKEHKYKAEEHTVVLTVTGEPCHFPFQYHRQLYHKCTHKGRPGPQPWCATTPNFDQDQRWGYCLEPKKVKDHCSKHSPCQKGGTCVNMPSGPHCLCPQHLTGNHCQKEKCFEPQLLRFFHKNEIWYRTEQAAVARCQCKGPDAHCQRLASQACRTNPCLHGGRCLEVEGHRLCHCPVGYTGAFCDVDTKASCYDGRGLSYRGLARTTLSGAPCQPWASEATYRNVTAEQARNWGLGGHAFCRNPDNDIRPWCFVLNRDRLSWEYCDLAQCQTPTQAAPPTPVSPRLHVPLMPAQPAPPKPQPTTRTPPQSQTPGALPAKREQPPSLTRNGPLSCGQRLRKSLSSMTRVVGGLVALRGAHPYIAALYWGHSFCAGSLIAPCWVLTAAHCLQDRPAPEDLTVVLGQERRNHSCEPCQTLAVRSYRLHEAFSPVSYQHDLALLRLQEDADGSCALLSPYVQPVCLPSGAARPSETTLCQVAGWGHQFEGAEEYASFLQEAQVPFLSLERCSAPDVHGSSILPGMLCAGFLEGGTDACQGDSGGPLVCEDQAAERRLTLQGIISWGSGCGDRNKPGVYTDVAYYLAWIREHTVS

[2] = viability of uninfected HEp-2 cells – cell-based, HTS, cytotoxicity control for RSV inhibitor project, dose response (AID 2410); type: functional; conditions: human respiratory syncytial virus
[3] = Luminescence Cell-Based Dose Response HTS to Identify Activators of Luciferase Translation or Activity in H4 […] Cells. [Related pubchem assays: 1829 (Project Summary), 1814 (Primary HTS)]; type: functional
[4] = test system: Streptococcus sp. 'group A'; assay: Streptococcus pyogenes SK(-)GAS viability under kanamycin – luminescence, BacTiterGlo, confirmation, counter-screen for streptokinase expression inhibitor project, dose response (AID 1900); type: functional, organism-based
[5] = test system: H4; assay: Luminescence Cell-Based Dose Response HTS to Identify Activators of 5'UTR Stem-Loop Driven Prion Protein mRNA Translation in H4 Neuroglioblastoma Cells. [Related pubchem assays: 1829 (Project Summary), 1814 (Primary HTS)]; type: functional; conditions: Homo sapiens
[6] = molecular target: T2, Streptokinase A (Streptococcus pyogenes serotype M1, UniProt P10520); assay: viability-normalized secreted streptokinase activity reduction – plasminogen activation absorbance, OD405, dose response (AID 1914); type: functional, Streptococcus pyogenes M1 GAS;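 also: secreted streptokinase activity via plasminogen activation per viability signal from cell pellet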
T2 sequence (P10520 whole entry): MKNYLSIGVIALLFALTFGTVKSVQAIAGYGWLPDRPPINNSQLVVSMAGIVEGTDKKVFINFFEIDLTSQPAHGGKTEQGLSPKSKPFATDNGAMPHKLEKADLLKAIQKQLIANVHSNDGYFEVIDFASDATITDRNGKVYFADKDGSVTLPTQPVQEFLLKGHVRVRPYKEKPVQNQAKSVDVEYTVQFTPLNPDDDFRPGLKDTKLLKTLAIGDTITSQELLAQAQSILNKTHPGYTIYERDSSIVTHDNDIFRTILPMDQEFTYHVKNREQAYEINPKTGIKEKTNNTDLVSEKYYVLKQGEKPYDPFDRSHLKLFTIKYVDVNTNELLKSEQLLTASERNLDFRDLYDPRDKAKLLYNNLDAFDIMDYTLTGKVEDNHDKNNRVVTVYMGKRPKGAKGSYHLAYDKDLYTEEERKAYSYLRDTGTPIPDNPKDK

[7] = molecular target: G-protein coupled receptor 55 (Homo sapiens, UniProt Q9Y2T6); assay: inhibition of LPI-stimulated GPR55 beta-arrestin translocation – imaging, U2OS, beta-arrestin-GFP, LPI agonist, primary screen (AID 2013); type: functional;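 also: antagonist potency measured as reduced agonist-driven arrestin aggregation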
[8] = test system: Streptococcus; assay: GAS UMAA2166 growth inhibition – luminescence, BacTiterGlo, counter-screen for streptokinase expression inhibitor project, dose response (AID 1915); type: functional, organism-based;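 also: potency for reduction of bacterial viability or growth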
[9] = molecular target: Glyceraldehyde-3-phosphate dehydrogenase (Homo sapiens, UniProt P04406)
[10] = molecular target: T3, Alkaline phosphatase, tissue-nonspecific isozyme (Homo sapiens, UniProt P05186); assay: potency against alkaline phosphatase TNAP – biochemical, luminescent, dose response, SAR follow-up (AID 1056)
T3 sequence (P05186 whole entry): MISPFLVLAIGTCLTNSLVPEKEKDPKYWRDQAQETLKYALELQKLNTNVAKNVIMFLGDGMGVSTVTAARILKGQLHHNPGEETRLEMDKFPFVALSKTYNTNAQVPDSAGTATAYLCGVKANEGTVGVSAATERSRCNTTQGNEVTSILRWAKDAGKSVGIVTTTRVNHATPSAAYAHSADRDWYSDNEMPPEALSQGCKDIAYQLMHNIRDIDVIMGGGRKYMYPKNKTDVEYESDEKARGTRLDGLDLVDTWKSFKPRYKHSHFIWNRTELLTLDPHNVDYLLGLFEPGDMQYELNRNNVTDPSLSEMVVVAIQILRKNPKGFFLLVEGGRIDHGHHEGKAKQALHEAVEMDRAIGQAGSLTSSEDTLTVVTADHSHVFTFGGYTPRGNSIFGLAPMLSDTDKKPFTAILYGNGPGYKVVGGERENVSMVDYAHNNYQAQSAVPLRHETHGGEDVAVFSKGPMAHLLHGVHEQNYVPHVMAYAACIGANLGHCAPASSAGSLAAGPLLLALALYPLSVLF

[11] = molecular target: Nonstructural protein 1 (Influenza A virus, UniProt Q194T2); type: functional, Influenza A virus (A/California/07/2009(H1N1))
[12] = molecular target: T4, Replicative DNA helicase DnaB (Mycobacterium tuberculosis, UniProt P9WMR3); assay: DnaB intein splicing inhibitors, dose response, biochemical, cell-free fluorescence (AID 449749); type: functional
T4 sequence (P9WMR3 whole entry): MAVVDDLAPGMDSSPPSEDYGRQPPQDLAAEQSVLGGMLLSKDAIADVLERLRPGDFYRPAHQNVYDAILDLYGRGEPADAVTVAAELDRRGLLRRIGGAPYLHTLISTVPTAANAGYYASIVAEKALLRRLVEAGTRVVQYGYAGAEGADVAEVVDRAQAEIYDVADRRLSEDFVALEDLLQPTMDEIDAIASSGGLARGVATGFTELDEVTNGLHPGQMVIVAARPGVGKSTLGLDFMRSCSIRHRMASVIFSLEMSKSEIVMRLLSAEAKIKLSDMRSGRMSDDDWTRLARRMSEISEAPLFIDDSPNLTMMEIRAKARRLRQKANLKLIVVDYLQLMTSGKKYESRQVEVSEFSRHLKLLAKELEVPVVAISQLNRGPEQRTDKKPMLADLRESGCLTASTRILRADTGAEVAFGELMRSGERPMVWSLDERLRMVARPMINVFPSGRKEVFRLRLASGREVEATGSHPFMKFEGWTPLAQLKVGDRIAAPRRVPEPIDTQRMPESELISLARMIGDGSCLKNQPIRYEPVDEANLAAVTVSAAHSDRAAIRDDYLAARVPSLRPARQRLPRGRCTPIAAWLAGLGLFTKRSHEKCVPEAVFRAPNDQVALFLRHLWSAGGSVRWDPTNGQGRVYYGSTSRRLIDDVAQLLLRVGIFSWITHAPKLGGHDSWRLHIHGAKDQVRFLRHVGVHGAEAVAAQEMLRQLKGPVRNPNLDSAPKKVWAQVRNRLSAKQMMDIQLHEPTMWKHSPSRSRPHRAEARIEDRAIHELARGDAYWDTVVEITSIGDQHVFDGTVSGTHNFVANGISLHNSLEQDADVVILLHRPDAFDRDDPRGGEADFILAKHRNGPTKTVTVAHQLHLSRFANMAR

[13] = molecular target: T5, Protein RecA (Mycobacterium tuberculosis, UniProt P9WHJ3); assay: Fluorescence Cell-Free Homogeneous Dose Retest to Identify Inhibitors of RecA-Intein Splicing Activity. [Related pubchem assays (depositor defined):AID2097, AID2223, AID489010, AID492950]; type: functional
T5 sequence (P9WHJ3 whole entry): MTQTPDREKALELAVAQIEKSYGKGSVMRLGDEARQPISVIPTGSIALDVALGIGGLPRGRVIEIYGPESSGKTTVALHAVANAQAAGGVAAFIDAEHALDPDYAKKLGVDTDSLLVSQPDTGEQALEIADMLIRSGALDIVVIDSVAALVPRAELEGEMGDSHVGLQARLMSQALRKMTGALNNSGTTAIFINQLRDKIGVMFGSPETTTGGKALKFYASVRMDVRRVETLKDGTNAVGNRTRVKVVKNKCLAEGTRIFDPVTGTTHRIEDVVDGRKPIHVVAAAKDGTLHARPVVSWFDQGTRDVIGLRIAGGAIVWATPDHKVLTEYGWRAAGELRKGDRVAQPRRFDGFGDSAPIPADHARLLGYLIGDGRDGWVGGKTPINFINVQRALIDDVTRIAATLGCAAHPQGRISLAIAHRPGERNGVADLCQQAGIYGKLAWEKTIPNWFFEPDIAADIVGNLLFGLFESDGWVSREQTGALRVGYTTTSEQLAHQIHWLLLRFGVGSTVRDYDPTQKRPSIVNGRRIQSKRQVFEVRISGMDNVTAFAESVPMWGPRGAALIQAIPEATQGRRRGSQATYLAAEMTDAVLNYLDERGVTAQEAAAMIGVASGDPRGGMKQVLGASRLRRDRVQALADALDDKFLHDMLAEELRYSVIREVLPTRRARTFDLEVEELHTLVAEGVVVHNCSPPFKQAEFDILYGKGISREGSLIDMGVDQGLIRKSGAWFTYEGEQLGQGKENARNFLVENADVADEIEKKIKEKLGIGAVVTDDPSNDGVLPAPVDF

[14] = molecular target: Prothrombin (Homo sapiens, UniProt P00734); assay: Thrombin 1536 HTS Dose Response Confirmation. [Related pubchem assays: 1046 (Thrombin 1536 HTS; hits were confirmed in this assay)]; type: functional
[15] = molecular target: SUMO-activating enzyme (Homo sapiens, UniProt Q9UBT2); assay: blockers of UBC9-mediated SUMO conjugation – biochemical, AlphaScreen, SUMOylation inhibitor project, confirmation (AID 2018); type: functional
[16] = molecular target: T6, ORF 73 (Human herpesvirus 8, UniProt O40947); assay: KSHV LANA DNA-binding disruption – biochemical, fluorescence polarization, cherry-picked samples, dose response (AID 504725); design: species or system Human gammaherpesvirus 8;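 also: fluorescence polarization of a labeled DNA duplex reporting LANA DNA binding; potency is for inhibitors that block LANA binding to the DNA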
T6 sequence (O40947 whole entry): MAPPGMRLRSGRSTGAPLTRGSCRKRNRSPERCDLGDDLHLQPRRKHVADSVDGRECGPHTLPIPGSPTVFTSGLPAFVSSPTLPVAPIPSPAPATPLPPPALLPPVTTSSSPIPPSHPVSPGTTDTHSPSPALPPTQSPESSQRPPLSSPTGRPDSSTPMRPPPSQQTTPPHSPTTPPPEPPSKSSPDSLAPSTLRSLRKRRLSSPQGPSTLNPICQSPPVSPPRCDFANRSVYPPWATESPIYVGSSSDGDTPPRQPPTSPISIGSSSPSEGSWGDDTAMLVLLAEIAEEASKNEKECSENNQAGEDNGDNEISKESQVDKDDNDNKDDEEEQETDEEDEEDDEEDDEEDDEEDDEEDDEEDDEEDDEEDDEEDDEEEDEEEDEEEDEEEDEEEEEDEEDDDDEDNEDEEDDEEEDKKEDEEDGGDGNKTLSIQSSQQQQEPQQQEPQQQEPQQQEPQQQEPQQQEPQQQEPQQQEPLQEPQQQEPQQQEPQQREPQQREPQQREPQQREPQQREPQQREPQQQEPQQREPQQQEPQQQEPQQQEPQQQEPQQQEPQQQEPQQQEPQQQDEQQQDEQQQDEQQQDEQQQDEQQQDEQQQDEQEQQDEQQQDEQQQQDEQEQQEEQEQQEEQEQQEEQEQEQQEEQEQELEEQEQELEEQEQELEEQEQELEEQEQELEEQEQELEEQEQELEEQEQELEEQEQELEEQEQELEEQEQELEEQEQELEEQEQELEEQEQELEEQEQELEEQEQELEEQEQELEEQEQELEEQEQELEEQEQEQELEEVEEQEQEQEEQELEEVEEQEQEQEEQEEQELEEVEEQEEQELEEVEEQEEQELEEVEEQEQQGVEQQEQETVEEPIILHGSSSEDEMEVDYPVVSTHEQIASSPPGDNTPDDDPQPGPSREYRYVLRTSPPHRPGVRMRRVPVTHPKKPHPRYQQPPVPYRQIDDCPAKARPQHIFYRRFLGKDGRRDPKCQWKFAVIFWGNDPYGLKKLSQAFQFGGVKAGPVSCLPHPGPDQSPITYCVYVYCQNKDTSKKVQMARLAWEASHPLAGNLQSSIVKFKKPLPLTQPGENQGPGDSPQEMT

Sequence of Glyceraldehyde-3-phosphate dehydrogenase (P04406 whole entry): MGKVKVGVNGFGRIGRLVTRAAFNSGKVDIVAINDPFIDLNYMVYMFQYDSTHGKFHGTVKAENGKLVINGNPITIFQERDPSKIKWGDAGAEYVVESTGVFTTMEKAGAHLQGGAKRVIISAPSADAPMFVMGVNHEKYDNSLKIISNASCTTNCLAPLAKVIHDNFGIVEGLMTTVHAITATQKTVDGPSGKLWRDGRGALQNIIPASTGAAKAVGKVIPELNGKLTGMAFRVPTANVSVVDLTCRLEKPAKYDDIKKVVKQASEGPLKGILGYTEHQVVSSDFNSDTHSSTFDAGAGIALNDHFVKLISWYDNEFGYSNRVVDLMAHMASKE
Sequence of G-protein coupled receptor 55 (Q9Y2T6 whole entry): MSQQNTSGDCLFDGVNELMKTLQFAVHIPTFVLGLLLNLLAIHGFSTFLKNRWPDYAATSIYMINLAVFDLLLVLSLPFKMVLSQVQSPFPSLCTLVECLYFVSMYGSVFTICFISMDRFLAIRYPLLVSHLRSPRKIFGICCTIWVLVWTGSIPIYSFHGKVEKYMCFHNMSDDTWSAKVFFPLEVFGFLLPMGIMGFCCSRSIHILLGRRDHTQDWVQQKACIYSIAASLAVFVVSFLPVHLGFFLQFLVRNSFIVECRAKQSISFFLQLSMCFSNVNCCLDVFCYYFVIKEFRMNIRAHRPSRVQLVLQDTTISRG
Sequence of Nonstructural protein 1 (Q194T2 whole entry): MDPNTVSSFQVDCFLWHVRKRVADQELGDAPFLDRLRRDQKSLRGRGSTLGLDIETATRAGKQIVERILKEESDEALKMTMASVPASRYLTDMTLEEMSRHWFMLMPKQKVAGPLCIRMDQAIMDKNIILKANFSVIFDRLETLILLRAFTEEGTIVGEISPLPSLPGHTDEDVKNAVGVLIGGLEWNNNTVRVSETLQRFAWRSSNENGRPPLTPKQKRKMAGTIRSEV
Sequence of SUMO-activating enzyme (Q9UBE0 whole entry): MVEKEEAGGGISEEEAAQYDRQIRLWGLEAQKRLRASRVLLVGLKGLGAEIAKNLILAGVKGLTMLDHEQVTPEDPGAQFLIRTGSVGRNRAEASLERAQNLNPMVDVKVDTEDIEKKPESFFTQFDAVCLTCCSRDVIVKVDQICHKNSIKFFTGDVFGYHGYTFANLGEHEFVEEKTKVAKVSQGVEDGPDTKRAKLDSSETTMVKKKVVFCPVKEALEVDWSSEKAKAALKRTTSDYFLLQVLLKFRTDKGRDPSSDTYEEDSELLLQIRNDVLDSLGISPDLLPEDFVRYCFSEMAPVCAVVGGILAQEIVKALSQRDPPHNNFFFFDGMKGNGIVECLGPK
Sequence of SUMO-activating enzyme (Q9UBT2 whole entry): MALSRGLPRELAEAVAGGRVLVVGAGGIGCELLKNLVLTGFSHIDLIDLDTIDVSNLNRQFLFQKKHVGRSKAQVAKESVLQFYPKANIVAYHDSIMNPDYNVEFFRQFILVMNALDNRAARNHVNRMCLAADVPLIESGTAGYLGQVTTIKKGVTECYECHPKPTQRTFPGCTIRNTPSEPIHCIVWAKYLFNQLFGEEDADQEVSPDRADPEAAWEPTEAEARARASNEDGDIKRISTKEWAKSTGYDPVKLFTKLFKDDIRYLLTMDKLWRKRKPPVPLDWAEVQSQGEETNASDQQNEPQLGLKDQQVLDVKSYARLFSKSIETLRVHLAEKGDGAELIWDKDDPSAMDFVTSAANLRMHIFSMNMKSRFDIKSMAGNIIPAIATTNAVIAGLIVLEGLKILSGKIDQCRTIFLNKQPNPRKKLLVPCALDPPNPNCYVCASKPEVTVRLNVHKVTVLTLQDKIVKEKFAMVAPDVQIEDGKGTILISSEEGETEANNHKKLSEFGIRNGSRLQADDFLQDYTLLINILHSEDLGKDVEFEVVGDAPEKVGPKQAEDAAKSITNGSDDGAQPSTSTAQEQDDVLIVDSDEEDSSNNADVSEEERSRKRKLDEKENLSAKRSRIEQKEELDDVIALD

## CC1=C(C(=O)OCC2CCCO2)C(c2ccc(C)o2)C2=C(O)CC(c3ccc(F)cc3)CC2=N1 (configuration not stated)
[1]
  IC50: > 50 µM (inactive)

## N=C1S/C(=C\c2cn[nH]c2-c2ccc(F)cc2)C(=O)N1c1ccccc1F
[2]
  CC50: 20.2 µM (active)
[3]
  EC50: 8.92 µM (active)
[4]
  EC50: 4.49 µM (active)
[5]
  EC50: > 120 µM (not active)
[6]
  EC50: > 150 µM (not active)
[7]
  IC50: < 0.5 µM (active)
[8]
  EC50: 38.9 µM (active)

## O=C(O)c1ccc(-c2ccccc2Cl)o1
[9]
  IC50: > 100 µM (not active)
[10]
  IC50: > 100 µM (inactive)

## COc1ccc2nc3ccccc3nc2c1N
[1]
  IC50: > 50 µM (inactive)
[11]
  IC50: 32.5 µM (active)
[12]
  AC50: 40.1 µM (active)
[13]
  EC50: 22.1 µM (active)

## CN(Cc1ccccn1)Cc1nc(-c2ccc(Cl)cc2)no1
[14]
  IC50: > 50 µM (not active)
[1]
  IC50: > 50 µM (inactive)

## CCOc1ccc(C)cc1S(=O)(=O)Nc1cccnc1
[9]
  IC50: > 10 µM (inconclusive)
[10]
  IC50: 0.858 µM (active)

## Cc1cc(C(=O)NCCc2ccc(O)c(O)c2)oc1C
[10]
  IC50: 57.3 µM (active)

## O=C(Nc1ccc(Br)cc1)c1ccc(N2C(=O)C3CC=C(Cl)CC3C2=O)cc1 (configuration not stated)
[15]
  IC50: 49.7 µM (active)

## Clc1ccc(-c2noc(CSc3nnc(Cc4cccs4)n3-c3ccccc3)n2)cc1
[7]
  IC50: 2.67 µM (active)

## CC(Oc1ccccc1)c1nnc(N)s1 (configuration not stated)
[16]
  AC50: 53 µM (active)
